Test results taken from US9611295B2, “Treatment of IL-17 mediated disease by blocking SEFIR-SEFIR interactions” (THE CLEVELAND CLINIC FOUNDATION, priority 2011, dated 2017).

How the values were obtained:
[1] = tested on: House Dust Mite (HDM)-induced Asthma; assay: Murine model of House Dust Mite (HDM)-induced asthma; assay type: in vivo, mouse; details: day 6; about 100,000 cells/ml without peptide
Protocol: FIG. 11 provides a graph showing that the ASI peptide inhibits inflammation in a murine model of experimental House Dust Mite (HDM)-induced Asthma. The white blood cell count was about 100,000 cells/ml when IL-17 was used alone, but dropped to about 10,000 cells/ml when ASI peptide was used together with IL-17. […] Ears from C57B1/6 mice (n=3 for each group) were injected daily with PBS, IL-17 with or without ASI. On day 7, ears were collected for staining with H&E and real-time analysis of gene expression.

[2] = tested on: IL-17-induced inflammation in mouse ear skin; assay: IL-17-induced inflammation in mouse ear skin; assay type: in vivo; details: C57B1/6 mice, daily injection
Protocol: Ears from C57B1/6 mice (n=3 for each group) were injected daily with PBS, IL-17 with or without ASI. On day 7, ears were collected for staining with H&E and real-time analysis of gene expression.

[3] = tested on: IL-25-dependent signaling; assay: IL-25-dependent signaling in MEFs by Western blotting (pIκB, pJNK, pERK, pp38 MAPK); assay type: cell-based, mouse; details: MEFs expressing IL-17RB, peptides 200 μM, 24 hours
Protocol: FIG. 4 provides data showing that a cell-permeable CC′ loop decoy peptide disrupts the interaction between Act1 and IL-17RA and inhibits IL-17R and IL-25R signaling. FIG. 4A provides sequences of Antennapedia homeodomain (Antp) (SEQ ID NO: 11)and decoy peptides (SEQ ID NOS 23-25 and 17, respectively, in order of appearance) with the Antp sequence underlined. FIG. 4B provides flow cytometry results based on experiments in which MEFs expressing IL-17RB were incubated for 2 or 24 hours with the indicated FITC-tagged peptides (200 μM) and were then analyzed by flow cytometry. […] The percentages of FITC-positive cells in the treated samples are shown. FIG. 4C provides Western blot results of experiments in which HeLa cells were cotransfected with plasmids encoding FLAG-tagged mAct1 and V5-tagged IL-17RA and were cultured for 24 hours, after which they were incubated for 24 hours with the indicated peptides (200 μM). IL-17RA was immunoprecipitated from the samples with antibody against the V5 tag, and samples were then subjected to Western blotting analysis with the indicated antibodies. FIG. 4D provides Western blot results of experiments in which MEFs expressing IL-17RB were incubated with the indicated peptides (200 μM) for 24 hours after which they were treated with IL-17 or IL-25 and then analyzed by Western blotting with the indicated antibodies. FIG. 4E provides bar graphs showing the results of experiments in which MEFs expressing IL-17RB were incubated with the indicated peptides (200 μM) for 24 hours, after which they were treated with IL-17 or IL-25 for 3 hours. The abundances of Cxcl1 and Il13 mRNAs were then measured by real-time RT-PCR. […]
(§1) Decoy peptides are based on surface-exposed regions of the primary sequence of a protein to mimic a putative interaction interface. […] These decoy peptides were also tagged at their C-termini with fluorescein isothiocyanate (FITC) to enable their cell-penetrating efficiency to be evaluated by flow cytometric sanalysis. […]

[4] = tested on: IL-17-mediated expression of Cxcl1; assay: IL-17-mediated Cxcl1 mRNA expression in MEFs, real-time RT-PCR; assay type: cell-based, mouse; details: peptides 200 μM for 24 hours, then IL-17 for 3 hours
Protocol: (§2) FIG. 4 provides data showing that a cell-permeable CC′ loop decoy peptide disrupts the interaction between Act1 and IL-17RA and inhibits IL-17R and IL-25R signaling. FIG. 4A provides sequences of Antennapedia homeodomain (Antp) (SEQ ID NO: 11)and decoy peptides (SEQ ID NOS 23-25 and 17, respectively, in order of appearance) with the Antp sequence underlined. FIG. 4B provides flow cytometry results based on experiments in which MEFs expressing IL-17RB were incubated for 2 or 24 hours with the indicated FITC-tagged peptides (200 μM) and were then analyzed by flow cytometry. […] The percentages of FITC-positive cells in the treated samples are shown. […] FIG. 4D provides Western blot results of experiments in which MEFs expressing IL-17RB were incubated with the indicated peptides (200 μM) for 24 hours after which they were treated with IL-17 or IL-25 and then analyzed by Western blotting with the indicated antibodies. […] The abundances of Cxcl1 and Il13 mRNAs were then measured by real-time RT-PCR. […]
as §1

[5] = tested on: IL-25-mediated expression of Il13; assay: IL-25-mediated Il13 mRNA expression in MEFs, real-time RT-PCR; assay type: cell-based, mouse; details: peptides 200 μM for 24 hours, then IL-25 for 3 hours
Protocol: as §2, §1

IL-17RA SEFIR domain = target: T1, IL-17RA SEFIR domain (Homo sapiens, UniProt Q96F46); assay: SPR binding of peptides to immobilized IL-17RA SEFIR domain; details: sensor-immobilized IL-17RA SEFIR, Biacore 3000
T1 construct: IL17RA-SEFIR, amino acid residues 351 to 616; 6xHis (N, cleaved yes); TEV recognition site (ENLYFQG) (N, cleaved yes); made in house
T1 sequence (Q96F46 351-616): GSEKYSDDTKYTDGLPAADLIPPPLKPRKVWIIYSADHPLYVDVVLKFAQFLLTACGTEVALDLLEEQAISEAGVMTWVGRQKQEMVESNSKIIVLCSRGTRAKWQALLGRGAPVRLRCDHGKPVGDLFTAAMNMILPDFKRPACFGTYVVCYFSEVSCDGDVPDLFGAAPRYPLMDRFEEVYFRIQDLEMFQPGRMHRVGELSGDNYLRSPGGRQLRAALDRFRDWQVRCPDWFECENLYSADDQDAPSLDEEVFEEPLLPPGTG
Excerpt: The Cins helix and the CC′ loop are distinct putative surface-exposed sequences in the SEFIR3 segment of Act1. To determine whether the Cins helix and the CC′ loop interacted with IL-17RA, surface plasmon resonance (SPR) was used to test peptides derived from Cins (SPKYKQDVEGAESQ) (SEQ ID NO: 19) and the CC′ loop (LDEDEHGLHTKY) (SEQ ID NO: 5) for their ability to bind to the IL-17RA SEFIR domain. As expected, the recombinant Act1 SEFIR domain bound to the sensor-immobilized SEFIR of IL-17RA.
Expression and purification of IL-17RA and mAct1-SEFIR proteins: The cDNA encoding a SEFIR domain-containing fragment of human IL17RA (IL17RA-SEFIR, amino acid residues 351 to 616) was subcloned into a modified pET-28 vector, with a N-terminal 6×His tag (SEQ ID NO: 18)and a tobacco etch virus protease (TEV) recognition site (ENLYFQG) (SEQ ID NO: 21 )). The IL17RA SEFIR domain was expressed and purified by double-Nickel-Nitrilotriacetic Acid (Ni-NTA) affinity methods as previously described. Deng et al., Acta Crystallogr D Biol Crystallogr 60:203-204 (2004). The His-tag was subsequently removed from the eluted fusion protein by rTEV, and IL17RA-SEFIR was further purified as flow-through material from a second subtracting Ni-NTA column. Size-exclusion chromatography on a superdex s200 HR high resolution column was used as a final step for purification. The cDNA encoding a SEFIR domain containing a fragment of mouse Act1 (mAct1-SEFIR, residues 391 to 537) was subcloned into a modified pET28b vector that expresses maltose-binding protein (MBP) with an N-terminal 6×His tag (SEQ ID NO: 18) and a C-terminal TEV recognition site. Recombinant mAct1-SEFIR was expressed and purified as previously described. Deng et al., Proc Natl Acad Sci USA 105:1499-1504 (2008). The His-tagged MBP moiety was cleaved from the fusion protein by rTEV after the first Ni-NTA column purification. Recombinant mAct1-SEFIR was subsequently collected as flow-through from a second subtracting Ni-NTA column.
SPR analysis: Binding of purified Act1 SEFIR domain or peptides to IL-17RA was conducted on a Biacore 3000. Purified IL-17RA SEFIR domain was immobilized on a CM5 sensor chip in 10 mM acetic acid (pH 4.5). Purified Act1 SEFIR domain or peptides were allowed to flow over the chip in a buffer of 10 mM Hepes (pH 7.4), 150 mM NaCl, and 0.005% surfactant P20. The chip was regenerated with 1 M NaCl. Binding KD values were determined by Biaevaluation software.

## ASI peptide: the CC′ loop decoy peptide (SEQ ID NO: 5) (LDEDEHGLHTKY)
[1]
  white blood cell count in BAL: about 10,000 cells/ml
[2]; day 7
  epidermal thickness and inflammation of ear skin (H&E): inhibits IL-17-induced inflammation
[2]; day 7, real-time analysis
  inflammatory gene expression in ear skin (bar graphs): counteracted the inflammatory results of IL-17

## Act1 SEFIR domain BB′ loop peptide: cell-permeable decoy peptide: BB′ loop sequence of Act1 SEFIR domain fused to C-terminus of Antp (DRQIKIWFQNRRMKWKKEDRIRGID) [reference compound]
[3]
  IL-25-dependent signaling (pIκB, pJNK, pERK, pp38 MAPK): but not the Act1 SEFIR domain BB′ loop peptide, partly attenuated
[4]
  inhibition of IL-17-mediated expression of Cxcl1: no effect
[5]
  inhibition of IL-25-mediated expression of Il13: no effect

## EDRIRGID (listed as Mus sp.) [peptide derived from the BB′ loop, reference compound]
IL-17RA SEFIR domain
  binding to the IL-17RA SEFIR domain (SPR): did not bind

## LDEDEHGLHTKY [CC′ loop peptide]
IL-17RA SEFIR domain
  binding to the IL-17RA SEFIR domain (SPR): bound to the IL-17RA SEFIR

## SPKYKQDVEGAESQ [Cins peptide, reference compound]
IL-17RA SEFIR domain
  binding to the IL-17RA SEFIR domain (SPR): but not the Cins peptide, bound to the IL-17RA SEFIR

B1: recombinant Act1 SEFIR domain: SEFIR domain containing fragment of mouse Act1, residues 391 to 537 (protein)
chain: RKVFITYSMDTAMEVVKFVNFLLVNGFQTAIDIFEDRIRGIDIIKWMERYLRDKTVMIIVAISPKYKQDVEGAESQLDEDEHGLHTKYIHRMMQIEFISQGSMNFRFIPVLFPNAKKEHVPTWLQNTHVYSWPKNKKNILLRLLREE
IL-17RA SEFIR domain
  binding to the IL-17RA SEFIR domain (SPR): bound
